In US9833497B2, “Human originated EGF domain proteins and use of the same” (CHENGDU SOURCEBIO LIMITED-LIABILITY COMPANY, priority 2013, dated 2017):

Assays:
Assay type in all cases: cell-based
E. coli DH5α = assay: Antibacterial activity: MIC and growth curve against E. coli DH5α in 96-well plate; conditions: minimal inhibitory concentration against E. coli DH5α; 96-well plate, 5×10^5 CFU/mL, 37° C., judged after 8 h
How it was run: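 MIC taken as lowest protein level with no bacterial growth, tracked by A600 every 30 min during 37 °C, 175 rpm culture. Two-fold protein series 50-12.5 μg/mL final, triplicate wells, against 5×10^5 CFU/mL of LB-washed mid-log cells.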

E. coli BL21 = assay: MIC against Gram-negative bacteria: E. coli BL21; conditions: E. coli BL21; 10 h cultivation at 37° C.; 5×10^5 CFU/mL
How it was run: (§1)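 First, colonies from LB agar were grown in LB at 37° C, 185 rpm, to McFarland turbidity 0.5, then centrifuged and resuspended in fresh LB. Next, wells received 5×10^5 CFU/mL bacteria plus two-fold serially diluted EGF domain protein (triplicate). Finally, plates were shaken at 37° C and the no-growth concentration taken as MIC.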

Pseudomonas aeruginosa = assay: MIC against Gram-negative bacteria: Pseudomonas aeruginosa; conditions: P. aeruginosa; 10 h cultivation at 37° C.; 5×10^5 CFU/mL
How it was run: as §1

Klebsiella pneumonia = assay: MIC against Gram-negative bacteria: Klebsiella pneumonia; conditions: K. pneumonia; 10 h cultivation at 37° C.; 5×10^5 CFU/mL
How it was run: as §1

Enterobacter cloacae = assay: MIC against Gram-negative bacteria: Enterobacter cloacae; conditions: E. cloacae; 10 h cultivation at 37° C.; 5×10^5 CFU/mL
How it was run: as §1

Aeromonas hydrophila = assay: MIC against Gram-negative bacteria: Aeromonas hydrophila; conditions: A. hydrophila; 10 h cultivation at 37° C.; 5×10^5 CFU/mL
How it was run: as §1

Citrobacter diversus = assay: MIC against Gram-negative bacteria: Citrobacter diversus; conditions: C. diversus; 10 h cultivation at 37° C.; 5×10^5 CFU/mL
How it was run: as §1

Moraxella catarrhalis = assay: MIC against Gram-negative bacteria: Moraxella catarrhalis; conditions: M. catarrhalis; 10 h cultivation at 37° C.; 5×10^5 CFU/mL
How it was run: as §1

Proteus mirabilis = assay: MIC against Gram-negative bacteria: Proteus mirabilis; conditions: P. mirabilis; 10 h cultivation at 37° C.; 5×10^5 CFU/mL
How it was run: as §1

Proteus vulgaris = assay: MIC against Gram-negative bacteria: Proteus vulgaris; conditions: P. vulgaris; 10 h cultivation at 37° C.; 5×10^5 CFU/mL
How it was run: as §1

Serratia marcescens = assay: MIC against Gram-negative bacteria: Serratia marcescens; conditions: S. marcescens; 10 h cultivation at 37° C.; 5×10^5 CFU/mL
How it was run: as §1

Substance | MIC (E. coli DH5α) [µg/mL] | MIC (μg/mL) E. coli BL21 (E. coli BL21) [µg/mL] | MIC (μg/mL) P. aeruginosa (Pseudomonas aeruginosa) [µg/mL] | MIC (μg/mL) K. pneumonia (Klebsiella pneumonia) [µg/mL] | MIC (μg/mL) E. cloacae (Enterobacter cloacae) [µg/mL] | MIC (μg/mL) A. hydrophila (Aeromonas hydrophila) [µg/mL] | MIC (μg/mL) C. diversus (Citrobacter diversus) [µg/mL] | MIC (μg/mL) M. catarrhalis (Moraxella catarrhalis) [µg/mL] | MIC (μg/mL) P. mirabilis (Proteus mirabilis) [µg/mL] | MIC (μg/mL) P. vulgaris (Proteus vulgaris) [µg/mL] | MIC (μg/mL) S. marcescens (Serratia marcescens) [µg/mL]
PRT815 (YGPSCQTRCSCANDGHCHPATGHCSCAPGWTGFSCQ; listed as Homo sapiens) | 25 | 12.5 | 12.5 | 12.5 | 25 | 12.5 | 25 | 50 | 25 | 12.5 | 25
PRT816 (WGPDCSHPCNCSAGHGSCDAISGLCLCEAGYVGPRCE; listed as Homo sapiens) | 25 | 50 | 100 | 50 | 25 | 12.5 | 25 | 50 | 25 | 25 | 12.5
PRT817 (FGPGCEQRCQCQHGAACDHVSGACTCPAGWRGTFCE; listed as Homo sapiens) | 50 | 12.5 | 50 | 25 | 12.5 | 25 | 50 | 25 | 12.5 | 50 | 12.5
PRT818 (DCRSACNCTAGAACDAVNGSCLCPAGRRGPRCA; listed as Homo sapiens) | 25 | 50 | 25 | 12.5 | 12.5 | 25 | 12.5 | 25 | 25 | 12.5 | 12.5
PRT819 (YGHNCSQACACFNGASCDPVHGQCHCAPGWMGPSCL; listed as Homo sapiens) | 12.5 | 25 | 12.5 | 12.5 | 25 | 12.5 | 25 | 50 | 12.5 | 50 | 25
PRT820 (YGDNCRHSCLCQNGGTCDPVSGHCACPEGWAGLACE; listed as Homo sapiens) | 12.5 | 50 | 12.5 | 50 | 12.5 | 50 | 12.5 | 50 | 12.5 | 12.5 | 25
PRT821 (DVDECRTHNGGCQHRCVNTPGSYLCECKPGFRLHTDSRTCL; listed as Homo sapiens) | 12.5 | 12.5 | 12.5 | 25 | 25 | 50 | 25 | 12.5 | 50 | 12.5 | 50
PRT822 (VRAGCRHSGGCLNGGLCDPHTGRCLCPAGWTGDKCQ; listed as Homo sapiens) | 12.5 | 25 | 50 | 12.5 | 50 | 12.5 | 12.5 | 12.5 | 25 | 12.5 | 12.5
PRT823 (FGEACAQRCSCPPGAACHHVTGACRCPPGFTGSGCE; listed as Homo sapiens) | 25 | 12.5 | 25 | 12.5 | 25 | 12.5 | 25 | 50 | 25 | 12.5 | 50
PRT824 (YGPGCEQLCGCLNGGSCDAATGACRCPTGFLGTDCN; listed as Homo sapiens) | 12.5 | 25 | 50 | 25 | 12.5 | 25 | 50 | 25 | 12.5 | 50 | 25
PRT825 (FGPNCTHVCGCGQGAACDPVTGTCLCPPGRAGVRCE; listed as Homo sapiens) | 25 | 12.5 | 25 | 50 | 25 | 12.5 | 25 | 50 | 12.5 | 50 | 25
PRT826 (FGVGCEHTCSCRNGGLCHASNGSCSCGLGWTGRHCE; listed as Homo sapiens) | 12.5 | 50 | 25 | 100 | 50 | 12.5 | 12.5 | 25 | 12.5 | 12.5 | 12.5
PRT827 (HLECSCHNNSTCEPATGTCRCGPGFYGQACE; listed as Homo sapiens) | 12.5 | 25 | 12.5 | 12.5 | 50 | 25 | 12.5 | 25 | 50 | 12.5 | 50
PRT828 (HGAGCQGLCWCQHGAPCDPISGRCLCPAGFHGHFCE; listed as Homo sapiens) | 12.5 | 50 | 12.5 | 50 | 12.5 | 50 | 12.5 | 50 | 25 | 12.5 | 25
PRT829 (FGPSCTLHCDCGGGADCDPVSGQCHCVDGYMGPTCR; listed as Homo sapiens) | 50 | 25 | 12.5 | 25 | 50 | 25 | 12.5 | 25 | 50 | 12.5 | 12.5
PRT830 (CALGNGGCQHHCVQLTITRHRCQCRPGFQLQEDGRHC; listed as Homo sapiens) | 12.5 | 12.5 | 12.5 | 12.5 | 25 | 12.5 | 25 | 12.5 | 25 | 12.5 | 12.5
